# In PubChem BioAssay (NCI):
#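 A five-concentration, 48-hour dose response in 96-well plates underlies each endpoint, interpolated linearly between surrounding concentrations. GI50: concentration for 50% inhibition of growth. TGI denotes the concentration required for complete inhibition of growth.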
# Legend:
# Assay in all cases: NCI tumour cell line growth inhibition, 48 h
# LXFL 529 NSCLC = tested on: LXFL 529 NSCLC
# RXF-631 renal = tested on: RXF-631 renal
# DMS 114 small cell lung = tested on: DMS 114 small cell lung
# M19-MEL melanoma = tested on: M19-MEL melanoma
# DMS 273 small cell lung = tested on: DMS 273 small cell lung
# HOP-18 NSCLC = tested on: HOP-18 NSCLC
# SNB-78 CNS = tested on: SNB-78 CNS
# BT-549 breast = tested on: BT-549 breast
# MDA-N = tested on: MDA-N
# P388/ADR leukemia = tested on: P388/ADR leukemia
# P388 leukemia = tested on: P388 leukemia
# SN12K1 renal = tested on: SN12K1 renal
SMILES,TGI (LXFL 529 NSCLC) [µM],TGI (RXF-631 renal) [µM],TGI (DMS 114 small cell lung) [µM],TGI (M19-MEL melanoma) [µM],TGI (DMS 273 small cell lung) [µM],TGI (HOP-18 NSCLC) [µM],TGI (SNB-78 CNS) [µM],further results
CCOC(=O)C(C)(C)Oc1ccc2c(C)c(-c3ccc(Cl)cc3)c(=O)oc2c1,> 100,> 100,> 100,> 100,> 100,–,–,–
O=C(N/N=C1/C(=O)N(c2ccc(Cl)cc2Cl)C(=O)C(=O)C1c1nc2ccccc2o1)c1ccccc1O (stereo not drawn),> 100,–,78.5,> 100,–,–,–,–
O=C1[C@@H]2C3c4ccccc4C([C@@H]2C(=O)N1c1ccccc1)S3(=O)=O,> 100,> 100,> 100,> 100,> 100,> 100,> 100,–
c1ccc(SC2CCSc3ccccc3C2Sc2ccccc2)cc1 (stereo not drawn),> 100,–,–,–,> 100,–,> 100,–
CCOC(=O)NC(=O)c1cn(CCOC(=O)NCCCCCCNC(=O)OCCn2cc(C(=O)NC(=O)OCC)c(=O)[nH]c2=O)c(=O)[nH]c1=O,> 100,–,> 100,> 100,> 100,> 100,> 100,–
O=c1[nH]cc(COCCO)c(=O)[nH]1,> 100,> 100,> 100,> 100,> 100,> 100,> 100,–
O=C(CSc1nnc(-c2ccc(N=Cc3ccc(Cl)cc3)cc2)o1)Nc1ccc(Cl)cc1,> 100,–,> 100,> 100,> 100,> 100,> 100,–
CC(=O)O[C@H]1CCC2[C@@H]3CCC4=C(O)c5nocc5C[C@]4(C)C3CC[C@@]21C (stereo partly drawn),> 100,–,> 100,> 100,> 100,> 100,> 100,–
Cc1ccc(Cn2c(C)nc3c2C(=O)c2ccccc2C3=O)cc1,58,–,–,21.1,19,–,> 100,–
O=C(NCCCCN=c1cccccc1NCCCCNC(=O)OCc1ccccc1)OCc1ccccc1,–,26.1,29.4,39.3,31.3,–,71.1,–
O=C(c1ccc(Cl)cc1)c1cnc(Nc2ccccc2Cl)s1,32.8,–,66.7,> 100,42.9,–,–,TGI (BT-549 breast): 51.2 µM; TGI (MDA-N): 50.1 µM
COc1ccc(/C(=N\NC(=O)C(N)=O)C(c2ccc(OC)cc2)C2(O)C(=O)Nc3c(Cl)cccc32)cc1 (stereo not drawn),> 100,–,> 100,> 100,–,> 100,> 100,–
Nc1nc(N)c(N=Nc2ccc([As](=O)(O)O)cc2)c(=O)[nH]1,–,–,–,–,–,–,–,TGI (BT-549 breast): > 100 µM; TGI (MDA-N): > 100 µM
CCC1C2C=CC(CC2)N1S(=O)(=O)c1ccc(C)cc1 (stereo not drawn),55.5,> 100,58.1,> 100,60.2,–,–,–
O=C(NC(=O)c1cn(CCNCCO)c(=O)[nH]c1=O)OCc1ccccc1,> 100,–,> 100,> 100,–,–,> 100,–
COC1C(O)=C2C(=O)O/C(C)=C/C=C/C=C/C=C\CC(c3ccccc3)NC(=O)\C=C/C=C\C=C\C=C\[C@@]2(C)[C@@H]1O (stereo partly drawn),–,–,0.357,0.273,–,–,–,TGI (BT-549 breast): 0.0201 µM; TGI (MDA-N): 0.265 µM
CN(C)c1c([O-])c(=[N+](C)C)c1=O,> 100,–,–,–,> 100,–,> 100,–
COc1ccc(NC(=O)/C(N=O)=C(/C)O)cc1,> 100,–,> 100,–,> 100,> 100,> 100,–
CCCCCCC[CH2][Sn]1([CH2]CCCCCCC)[O]C(=O)c2cccnc2[S]1,> 100,> 100,> 100,> 100,> 100,–,> 100,GI50 (LXFL 529 NSCLC): > 100 µM; GI50 (RXF-631 renal): > 100 µM; GI50 (DMS 114 small cell lung): > 100 µM; GI50 (M19-MEL melanoma): > 100 µM; GI50 (SNB-78 CNS): > 100 µM; GI50 (DMS 273 small cell lung): > 100 µM
Cc1c(Cl)cccc1N1C(=O)C(Cl)=C(Cl)C1=O,> 100,–,> 100,> 100,> 100,> 100,> 100,–
CCOC(=O)C1(c2ccccc2)CCC(=O)CC1,> 100,> 100,> 100,> 100,> 100,> 100,> 100,–

SMILES,TGI (LXFL 529 NSCLC) [µM],TGI (RXF-631 renal) [µM],TGI (DMS 114 small cell lung) [µM],TGI (M19-MEL melanoma) [µM],TGI (DMS 273 small cell lung) [µM],TGI (HOP-18 NSCLC) [µM],TGI (SNB-78 CNS) [µM],further results
C[C@H]1NC(=O)C2CCCCN2C(=O)CN(C)C(=O)CNC(=O)C2CCCCN2C(=O)[C@@H](NC(=O)c2nc3ccccc3cc2O)[C@@H](C)NC(=O)C2CCCCN2C(=O)CN(C)C(=O)CNC(=O)[C@@H]2CCCCN2C(=O)C1NC(=O)c1nc2ccccc2cc1O (stereo partly drawn),0.646,–,0.703,0.56,1.07,–,11.5,–
Cc1ccc(NC(=O)C2C(=O)N(c3ccc(C)c(C)c3)C(=O)C2N=N)cc1C (stereo not drawn),> 100,> 100,> 100,> 100,> 100,> 100,> 100,–
O=C(Nc1cc(Cl)ccc1Cl)c1cc2cccc(Cl)c2oc1=O,–,–,> 100,> 100,> 100,> 100,–,–
CCCNC(=S)/N=C/c1c(O)c2ccccc2[nH]c1=O,–,–,–,–,–,–,–,TGI (BT-549 breast): > 100 µM; TGI (MDA-N): > 100 µM
Cc1[nH]c2ccccc2c1-c1cc(-c2cc(-c3c(C)[nH]c4ccccc34)on2)no1,–,–,–,–,–,–,–,TGI (BT-549 breast): > 100 µM; TGI (MDA-N): 48.3 µM
CCc1c(OC(C)=O)c2c(NC3OC(COC(C)=O)C(OC(C)=O)C(OC(C)=O)C3OC(C)=O)nc(OC)nc2oc1=O (stereo not drawn),> 100,–,> 100,> 100,> 100,> 100,> 100,–
COc1ccc(C(O)c2nccn2C)c(OC)c1 (stereo not drawn),–,–,–,–,–,–,–,TGI (BT-549 breast): > 100 µM; TGI (MDA-N): > 100 µM
O=C(CC(O)(C(F)(F)F)C(F)(F)F)c1cc(CC(=O)C(O)(C(F)(F)F)C(F)(F)F)cc(CC(=O)C(O)(C(F)(F)F)C(F)(F)F)c1,–,–,–,–,–,–,–,TGI (BT-549 breast): 4.93 µM; TGI (MDA-N): > 9.13 µM
CCc1cccc(C)c1NC(=O)C(=O)Cc1nc2ccccc2o1,> 100,–,> 100,> 100,–,> 100,> 100,–
COC(=O)[C@]1(C)CCCC2(C)C1CC[C@H]1C=C(C)[C@H]3CCC12C3 (stereo partly drawn),> 100,> 100,> 100,–,–,–,> 100,–
COc1ccc2oc(-c3cccnc3)cc(=O)c2c1,> 100,> 100,> 100,> 100,> 100,–,–,–
N=c1ccn2c(n1)OC1C(O)C(CO)OC12 (stereo not drawn),–,–,> 163,> 1000,> 364,> 662,> 1000,GI50 (BT-549 breast): > 100 µM; TGI (BT-549 breast): > 1000 µM; TGI (P388/ADR leukemia): 5.13 µM; TGI (P388 leukemia): 4.37 µM; TGI (SN12K1 renal): > 1 mM
CCOc1ccc2c(c1)[n+]([O-])c(-c1ccccc1Cl)c(N)[n+]2[O-],> 100,> 100,> 100,> 100,> 100,> 100,> 100,–
CC1=CC(=O)[C@@H](O)[C@]2(C)[C@H]3[C@@]4(O)OC[C@]35[C@H]([C@@H](C)[C@H]4O)[C@@H](O)C(=O)O[C@@H]5C[C@@H]12,–,–,–,–,–,–,–,TGI (BT-549 breast): 5.17 µM; TGI (MDA-N): 0.869 µM
COC1[C@@H](OC(C)=O)[C@@H](NC(=O)C(Cl)(Cl)Cl)C(I)[C@@H](N2C(=O)c3ccccc3C2=O)[C@H]1OC (stereo partly drawn),> 100,–,> 100,–,> 100,> 100,> 100,–
CCOc1ccc(N2C(=O)/C(=C/c3ccc(N(CCC#N)CCC#N)cc3)N=C2c2cc([N+](=O)[O-])ccc2Cl)cc1,95,> 100,> 100,66.5,40.8,> 100,> 100,–
O=C1NC(=S)NNC12c1ccccc1-c1ccccc12,–,–,–,–,–,–,–,TGI (BT-549 breast): > 10 µM; TGI (MDA-N): > 10 µM
O=[N+]([O-])c1ccc(-n2nnc(C3=NCCN3)c2-c2ccc(Cl)cc2)cc1,> 100,–,> 100,> 100,> 100,> 100,> 100,–
COc1cccc(/C=N/[N-]C(=O)c2ccncc2)c1[O-].[Cu+2].[OH3+],> 100,–,> 100,> 100,> 100,> 100,> 100,GI50 (HOP-18 NSCLC): > 100 µM; GI50 (LXFL 529 NSCLC): 57.7 µM; GI50 (DMS 114 small cell lung): 71.1 µM; GI50 (M19-MEL melanoma): > 100 µM; GI50 (SNB-78 CNS): > 100 µM; GI50 (DMS 273 small cell lung): 48.2 µM
O=C1c2ccccc2C2(O)c3cc4ccccc4cc3OC12O (stereo not drawn),> 100,–,99,> 100,> 100,> 100,> 100,–
Cc1ccc(S(=O)(=O)N/N=C/c2oc(-c3ccncc3)c(-c3ccncc3)c2[N+](=O)[O-])cc1,> 100,> 100,–,> 100,> 100,> 100,> 100,–
